The text below walks through data of patent US20190076384A1, “METHODS FOR TREATING UREA CYCLE DISORDERS” (priority 2017, published 2019).

Data set [1] deals with T1, CYP1A2 (Homo sapiens, UniProt P05177).
T1 construct: from tissue; host or cells: human liver microsomes
T1 sequence (P05177 1-516): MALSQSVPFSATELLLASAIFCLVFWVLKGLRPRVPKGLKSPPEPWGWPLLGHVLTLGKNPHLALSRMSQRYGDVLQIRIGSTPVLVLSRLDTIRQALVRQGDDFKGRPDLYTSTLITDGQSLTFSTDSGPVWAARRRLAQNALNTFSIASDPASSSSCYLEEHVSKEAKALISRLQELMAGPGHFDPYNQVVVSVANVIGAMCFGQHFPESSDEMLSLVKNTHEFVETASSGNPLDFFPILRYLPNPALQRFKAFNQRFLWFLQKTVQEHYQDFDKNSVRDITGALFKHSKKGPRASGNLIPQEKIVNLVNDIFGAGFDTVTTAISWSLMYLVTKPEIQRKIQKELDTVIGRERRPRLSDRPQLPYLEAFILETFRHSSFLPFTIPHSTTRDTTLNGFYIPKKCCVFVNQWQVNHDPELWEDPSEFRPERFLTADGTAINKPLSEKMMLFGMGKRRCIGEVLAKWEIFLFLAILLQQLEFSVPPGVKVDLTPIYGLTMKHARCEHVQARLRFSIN
The class given is in vitro ADME. The following applies: 7-ethoxyresorufin-O-deethylase, 5 mM.

The target in data set [2] is T2, CYP2C8 (Homo sapiens, UniProt P10632).
T2 construct: from tissue; host or cells: human liver microsomes
T2 sequence (P10632 1-490): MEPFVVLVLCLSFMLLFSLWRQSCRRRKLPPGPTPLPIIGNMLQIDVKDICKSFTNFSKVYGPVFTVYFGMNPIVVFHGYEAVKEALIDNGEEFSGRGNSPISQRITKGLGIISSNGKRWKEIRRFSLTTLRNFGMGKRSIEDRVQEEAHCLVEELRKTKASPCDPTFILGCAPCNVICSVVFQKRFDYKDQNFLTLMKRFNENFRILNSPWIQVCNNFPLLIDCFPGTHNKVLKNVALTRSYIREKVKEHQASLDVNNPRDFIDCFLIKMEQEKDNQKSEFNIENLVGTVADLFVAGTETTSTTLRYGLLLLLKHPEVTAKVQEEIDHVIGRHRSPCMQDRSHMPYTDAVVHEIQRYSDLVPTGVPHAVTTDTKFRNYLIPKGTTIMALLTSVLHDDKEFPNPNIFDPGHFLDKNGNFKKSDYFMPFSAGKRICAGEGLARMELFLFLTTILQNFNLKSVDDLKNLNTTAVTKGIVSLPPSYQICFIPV
The data set can be described thus: In vitro CYP inhibition study, human liver microsomes, CYP2C8. As to conditions: Taxol 6α-hydroxylase, 5 mM. The class given is in vitro ADME. Background: Microsomes from liver hold many membrane-bound enzymes, among them those of drug oxidation.

Data set [3] deals with T3, CYP2C19 (Homo sapiens, UniProt P33261).
T3 construct: from tissue; host or cells: human liver microsomes
T3 sequence (P33261 whole entry): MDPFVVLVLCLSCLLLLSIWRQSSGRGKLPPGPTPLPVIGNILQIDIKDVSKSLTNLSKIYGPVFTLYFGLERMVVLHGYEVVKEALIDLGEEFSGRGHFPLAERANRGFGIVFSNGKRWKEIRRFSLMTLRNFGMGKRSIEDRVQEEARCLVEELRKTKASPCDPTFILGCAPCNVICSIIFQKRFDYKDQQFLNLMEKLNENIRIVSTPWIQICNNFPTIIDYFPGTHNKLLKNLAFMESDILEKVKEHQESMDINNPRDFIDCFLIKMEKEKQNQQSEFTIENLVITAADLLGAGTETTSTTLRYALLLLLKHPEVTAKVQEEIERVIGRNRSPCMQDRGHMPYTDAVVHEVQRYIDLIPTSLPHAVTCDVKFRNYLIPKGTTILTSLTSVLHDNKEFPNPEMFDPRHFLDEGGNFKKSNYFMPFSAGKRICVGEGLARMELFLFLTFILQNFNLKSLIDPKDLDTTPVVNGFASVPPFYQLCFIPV
The class given is in vitro ADME. The following applies: S-Mephenytoin 4′-hydroxylase, 5 mM.

Data set [4] is classed as in vivo, human.
Procedure: Blood samples were collected on Days 1 and 5 at the following time points: predose, 0.5, 1, 2, 3, 4, 6, 8, 10, 12, 16, and 24 hours postdose. In addition, five plasma PK samples for GPB analysis were collected on Day 4 at the following time points: at 1 minute, 30 minutes, and 1 hour following the first morning dose of RAVICTI; at 30 minutes and 1 hour post second dose of RAVICTI.
Data set [5] can be described thus: Safety and tolerability of RAVICTI coadministered with midazolam. The class given is in vivo, human. The protocol: (§1) Safety: Safety and tolerability were assessed through adverse events (AEs), clinical laboratory results, physical examination findings, vital sign measurements, and electrocardiograms (ECGs).
Safety: Safety data were summarized by treatment and time point. Descriptive statistics (mean, standard deviation [SD], minimum, median, maximum, and sample size [N]) were calculated for quantitative safety data and frequency counts were compiled for classification of qualitative safety data. AE verbatim terms were mapped to preferred terms and system organ classes using the Medical Dictionary for Regulatory Activities (MedDRA®) (Version 16.1). Concomitant medications were coded with the World Health Organization (WHO) Dictionary version 1Mar. 2013.

In data set [6] the target is Cytochrome P450 2C9 (Homo sapiens, UniProt P11712). The data set can be described thus: clinical. The following applies: multiple doses of RAVICTI. The procedure:
Methodology: This was an open-label, 2-period, monosequence crossover, drug-drug interaction (DDI) study of RAVICTI and celecoxib in healthy male and female subjects.
Test Product, Dose, Duration, and Mode of Administration: In Treatment A (Period 1), subjects received 200 mg celecoxib (1×200 mg capsule) administered orally with approximately 240 mL of water following an overnight fast and approximately 5 minutes prior to the start of a standard breakfast on Day 1.
Pharmacokinetics: Blood samples (4 mL) for the analysis of plasma celecoxib were collected on Days 1 (Period 1) and 4 (Period 2) at the following time points: predose (Hour 0) and 1, 2, 3, 4, 6, 8, 12, 16, 24, 36, 48, 60, and 72 hours postdose. A blood sample (6 mL) for CYP2C9 genotyping was collected at screening to exclude any subjects with a slow metabolizer genotype (i.e., CYP2C9*2/*2, CYP2C9*2/*3, CYP2C9*1/*3, and CYP2C9*3/*3). PK parameters for celecoxib in plasma were computed following Day 1 (Period 1) and Day 4 (Period 2) blood draws and included AUC0-t, AUC0-inf, AUC%extr, Cmax, tmax, t1/2, kel, and CL/F.
Pharmacokinetics: The possible DDI was examined between co-administration of RAVICTI and celecoxib (Treatment B, test) and celecoxib administered alone (Treatment A, reference). An analysis of variance (ANOVA) was performed with treatment as a fixed effect and subject as a random effect. Data for AUC0-t, AUC0-inf, and Cmax, as appropriate, were ln-transformed prior to analysis. The 90% confidence intervals (CIs) of the test group means relative to the reference group means were obtained by taking the antilog of the corresponding 90% CIs for the differences between the means on the log scale, i.e., ratio of geometric least-squares (LS) means.

A short description of data set [7]: Safety and tolerability of RAVICTI co-administered with celecoxib. The class given is in vivo, human. The procedure: as §1
Safety: Safety data were summarized by treatment and time point. Descriptive statistics (mean, standard deviation [SD], minimum, median, maximum, and sample size [N]) were calculated for quantitative safety data and frequency counts were compiled for classification of qualitative safety data. AE verbatim terms were mapped to preferred terms and system organ classes using the Medical Dictionary for Regulatory Activities (MedDRA®) (Version 18.0). Concomitant medications were coded with the World Health Organization (WHO) Dictionary version 1Mar. 2015.

The target of data set [8] is CYP2C9 (Homo sapiens, UniProt P11712). As to conditions: Diclofenac 4′-hydroxylase, 5 mM.
CYP2C9, sequence (P11712 whole entry): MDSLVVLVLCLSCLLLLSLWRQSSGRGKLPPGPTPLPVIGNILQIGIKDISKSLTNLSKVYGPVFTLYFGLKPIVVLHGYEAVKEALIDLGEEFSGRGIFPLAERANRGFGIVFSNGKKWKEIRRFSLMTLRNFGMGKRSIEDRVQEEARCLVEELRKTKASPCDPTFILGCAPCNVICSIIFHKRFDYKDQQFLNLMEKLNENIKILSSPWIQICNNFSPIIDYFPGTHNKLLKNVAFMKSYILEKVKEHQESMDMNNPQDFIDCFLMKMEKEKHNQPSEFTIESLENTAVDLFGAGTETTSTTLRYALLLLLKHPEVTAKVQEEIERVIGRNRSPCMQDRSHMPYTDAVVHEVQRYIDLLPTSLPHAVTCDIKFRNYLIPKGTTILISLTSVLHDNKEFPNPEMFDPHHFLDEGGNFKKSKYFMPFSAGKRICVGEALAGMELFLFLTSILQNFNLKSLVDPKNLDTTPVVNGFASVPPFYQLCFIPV
Where [9] appears, read: RAVICTI coadministered with midazolam, 24 healthy subjects.
[10] abbreviates: RAVICTI co-administered with celecoxib, 28 healthy subjects.

Structures are written as SMILES. Like-named read-outs stand apart in the source and are kept apart here.

Cytochrome P450 2C9, sequence (P11712 whole entry): as above

The % Inhibition is how much of the control response was suppressed. A higher % Inhibition goes with a strong effect. On to `O=C(CCCc1ccccc1)OCC(COC(=O)CCCc1ccccc1)OC(=O)CCCc1ccccc1` [RAVICTI, benzenebutanoic acid, 1′,1″-(1,2,3-propanetriyl) ester], for which the “% Inhibition” value was 5% in data set [1] (pre-incubation time 0 min); 8% in data set [1] (pre-incubation time 30 min); 11% in data set [2] (pre-incubation time 0 min); 10% in data set [2] (pre-incubation time 30 min); 8% in data set [3] (pre-incubation time 0 min); 7% in data set [3] (pre-incubation time 30 min). Besides, the “% Inhibition” value in data set [8] (pre-incubation time 0 min) worked out at 35%; in data set [8] (pre-incubation time 30 min) it was 19%. Moreover, the “Plasma glycerol phenylbutyrate concentrations” value in data set [4] (Day 4 samples, not quantifiable, LLOQ=1.00 ng/mL) is recorded as under 1.00 ng/mL. Besides, the “Intact glycerol phenylbutyrate in plasma” value in data set [4] (healthy subjects, RAVICTI oral) is given as “not detectable”. Also, the “deaths, SAEs, discontinuations due to AEs” value in data set [5] (setting [9]) is given as “no deaths, serious adverse events (SAEs), or subject discontinuations due to AEs”; in data set [7] (setting [10]), “no deaths, SAEs, or subject discontinuations due to AEs”. In addition, the results for the “subjects experiencing TEAEs” value in data set [5] (setting [9]) and in data set [7] (setting [10]) were 6 subjects and 8 subjects, respectively. The “total TEAEs” value in data set [5] (setting [9]) is recorded as 10; in data set [7] (setting [10]), 23. The “safety and tolerability (conclusion)” value is “safe and generally well tolerated” in data set [5] (oral RAVICTI coadministered with midazolam, healthy adults); “safe and generally well tolerated” in data set [7] (oral RAVICTI co-administered with celecoxib, healthy adults). Further, in data set [6], the “inhibition of CYP2C9 activity in vivo” value is “did not appear to inhibit”.
